From patent US20120149718A1, “Amido Compounds” (priority 2010, published 2012)

Legend:
human P2X7 = target: T1, human P2X7 (Homo sapiens, UniProt Q99572); experiment: Intracellular Calcium Flux (FLIPR) Assay; type: cell-based; settings: 1321N1 cells stably expressing full length human P2X7; agonist 100 μM BzATP; fluo-3 calcium flux; read-out: FLIPR pIC50 hP2X7-1321n1 (converted)
T1 construct: 1321N1 cells stably expressing the full length human P2X7 gene (1321N1-hP2X7)
T1 sequence (Q99572 1-595): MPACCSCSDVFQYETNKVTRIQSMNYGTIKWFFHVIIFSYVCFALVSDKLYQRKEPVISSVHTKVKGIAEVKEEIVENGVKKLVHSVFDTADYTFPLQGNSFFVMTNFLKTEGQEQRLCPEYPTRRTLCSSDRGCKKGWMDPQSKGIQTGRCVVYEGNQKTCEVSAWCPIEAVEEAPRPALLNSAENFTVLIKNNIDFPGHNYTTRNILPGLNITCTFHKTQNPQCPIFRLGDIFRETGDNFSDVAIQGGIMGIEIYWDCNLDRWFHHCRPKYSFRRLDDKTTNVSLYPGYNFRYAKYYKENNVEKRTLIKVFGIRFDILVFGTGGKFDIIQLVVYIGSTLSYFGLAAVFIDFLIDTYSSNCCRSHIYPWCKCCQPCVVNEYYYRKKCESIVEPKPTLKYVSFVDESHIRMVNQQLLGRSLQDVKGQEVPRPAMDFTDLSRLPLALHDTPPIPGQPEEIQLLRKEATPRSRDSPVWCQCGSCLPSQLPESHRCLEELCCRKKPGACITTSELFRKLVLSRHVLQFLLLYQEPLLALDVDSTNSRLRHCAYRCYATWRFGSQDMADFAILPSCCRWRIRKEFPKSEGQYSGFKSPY
Procedure: Stock solutions of compounds were prepared from powders as a 10 mM DMSO stock solution. These solutions were stored at RT during the two week period of these experiments to prevent freeze-thaw of the DMSO stocks. The DMSO stocks were added to the appropriate assay buffer at a concentration of 10 μM, and then diluted serially to the final concentrations that were tested. No observable precipitate was formed at any time during this process. The aqueous solutions of compounds as well as ATP (Sigma A7699) and BzATP (Sigma B6396) were prepared fresh for each day of experiment.
1321N1 cells stably expressing the full length human P2X7 gene (1321N1-hP2X7) and HEK293 cells stably expressing the full length rat P2X7 gene (HEK293-rP2X7) were obtained from the Roche Cell Culture Facility. 1321N1-hP2X7 cells were grown in Dulbecco's Modified Eagle's Medium (DMEM) high glucose supplemented with 10% FBS and 250 μg/mL G418. HEK293-rP2X7 cells were grown in DMEM/F-12 supplemented with 10% FBS, 1 mM CaCl2, 2 mM MgCl2, 2 mM L-Glutamine and 500 μg/ml G418. Cells were split such that they never became >70% confluent.
On the day prior to the experiment, 1321N1-hP2X7 or HEK293-rP2X7 cells were released into suspension with calcium-free PBS+Versene and washed by centrifugation with calcium-free PBS to remove the Versene. Cells were resuspended in growth medium at a density of 2.5×10^5 cells/mL and seeded into black walled, clear bottom 96 well plates (50,000 cells/well) approximately 18 hr prior to intracellular calcium flux experiments.
On the day of the experiment, plates were washed with FLIPR buffer (calcium- and magnesium-free Hank's Balanced Salt Solution (HBSS) supplemented with 10 mM Hepes, 2.5 mM probenecid and 2 mM calcium chloride) using a BIO-TEK 96 channel plate washer and incubated with […] fluo-3 dye at 37° C. for one hr. The dye was then removed by plate washing and the cells were allowed to equilibrate for 20 min at room temperature with antagonist or vehicle (FLIPR buffer). Agonist (100 μM BzATP final concentration for hP2X7; 5 μM BzATP final concentration or rP2X7) was added online with the FLIPR and fluorescence measurements made at 1 sec intervals for 60 sec followed by 3 sec intervals for a further 4 min (5 min total). A final addition of 5 μM ionomycin was made and the maximal BzATP-evoked fluorescence normalized to the maximal ionomycin-evoked fluorescence.

Structure (SMILES) | melting point [°C] | IC50 (human P2X7) [µM]
CC(C)(O)c1ccc(C(Cc2ccc(F)cc2)C(=O)Nc2nc3ccccc3o2)cc1 (stereo not drawn) [Compound I-31, N-Benzooxazol-2-yl-3-(4-fluoro-phenyl)-2-[4-(1-hydroxy-1-methyl-ethyl)-phenyl]-propionamide] | 87 to 90 | 0.282
Cc1ccccc1CC(C(=O)Nc1nc2ccccc2o1)c1ccc(S(C)(=O)=O)cc1 (stereo not drawn) [Compound I-2, N-Benzooxazol-2-yl-2-(4-methanesulfonyl-phenyl)-3-o-tolyl-propionamide] | 105.7 to 108.9 | 0.302
CS(=O)(=O)c1ccc(C(Cc2ccccc2F)C(=O)Nc2nc3ccccc3o2)cc1 (stereo not drawn) [Compound I-8, N-Benzooxazol-2-yl-3-(2-fluoro-phenyl)-2-(4-methanesulfonyl-phenyl)-propionamide] | 99 to 100 | 0.0871
CSc1cnc(NC(=O)C(Cc2ccc(F)cc2)c2ccc(S(C)(=O)=O)cc2)cn1 (stereo not drawn) [Compound I-14, 3-(4-Fluoro-phenyl)-2-(4-methanesulfonyl-phenyl)-N-(5-methylsulfanyl-pyrazin-2-yl)-propionamide] | 187.7 to 188.4 | 1.12
CS(=O)(=O)c1ccc(C(Cc2ccc(F)cc2)C(=O)Nc2nc3ccc(CO)cc3o2)cc1 (stereo not drawn) [Compound I-20, 3-(4-Fluoro-phenyl)-N-(6-hydroxymethyl-benzooxazol-2-yl)-2-(4-methanesulfonyl-phenyl)-propionamide] | 128 to 130 | 0.0204
CCOCc1cnc(NC(=O)C(Cc2ccc(F)cc2)c2ccc(S(C)(=O)=O)cc2)cn1 (stereo not drawn) [Compound I-22, N-(5-Ethoxymethyl-pyrazin-2-yl)-3-(4-fluoro-phenyl)-2-(4-methanesulfonyl-phenyl)-propionamide] | 99 to 100 | 0.741
CS(=O)(=O)c1ccc(C(Cc2ccc(F)cc2)C(=O)Nc2nc3ncccc3o2)cc1 (stereo not drawn) [Compound I-18, 3-(4-Fluoro-phenyl)-2-(4-methanesulfonyl-phenyl)-N-oxazolo[4,5-b]pyridin-2-yl-propionamide] | 261 to 263.7 | 0.234
COCc1cnc(NC(=O)C(Cc2ccc(F)cc2)c2ccc(S(C)(=O)=O)cc2)cn1 (stereo not drawn) [Compound I-21, 3-(4-Fluoro-phenyl)-2-(4-methanesulfonyl-phenyl)-N-(5-methoxymethyl-pyrazin-2-yl)-propionamide] | 69 to 82.3 | 0.646
CS(=O)(=O)c1cccc(C(Cc2ccc(F)cc2)C(=O)Nc2nc3ccccc3o2)c1 (stereo not drawn) [Compound I-12, N-Benzooxazol-2-yl-3-(4-fluoro-phenyl)-2-(3-methanesulfonyl-phenyl)-propionamide] | 99 to 100 | 0.741
CS(=O)(=O)c1ccc(C(Cc2ccc(F)cc2Cl)C(=O)Nc2nc3ccccc3o2)cc1 (stereo not drawn) [Compound I-6, N-Benzooxazol-2-yl-3-(2-chloro-4-fluoro-phenyl)-2-(4-methanesulfonyl-phenyl)-propionamide] | 127 to 128 | 0.794
CS(=O)(=O)c1ccc(C(Cc2ccc(F)cc2)C(=O)Nc2nc3ccccc3o2)cc1 (stereo not drawn) [Compound I-7, N-Benzooxazol-2-yl-3-(4-fluoro-phenyl)-2-(4-methanesulfonyl-phenyl)-propionamide] | 109 to 110 | 0.0631
NC(=O)c1ccc(C(Cc2ccc(F)cc2)C(=O)Nc2nc3ccccc3o2)cc1 (stereo not drawn) [Compound I-32, 4-[1-(Benzooxazol-2-ylcarbamoyl)-2-(4-fluoro-phenyl)-ethyl]-benzamide] | 137 to 139 | 0.0204
CS(=O)(=O)c1ccc(C(Cc2ccc(F)cc2)C(=O)Nc2cncc(Cl)n2)cc1 (stereo not drawn) [Compound I-25, N-(6-Chloro-pyrazin-2-yl)-3-(4-fluoro-phenyl)-2-(4-methanesulfonyl-phenyl)-propionamide] | 191.6 to 192.7 | 0.851
O=C(Nc1nc2ccccc2o1)C(Cc1ccc(F)cc1)c1ccc(F)cc1F (stereo not drawn) [Compound I-29, N-Benzooxazol-2-yl-2-(2,4-difluoro-phenyl)-3-(4-fluoro-phenyl)-propionamide] | 177.5 to 177.9 | 0.501
CCOC(=O)c1ccc(C(Cc2ccc(F)cc2)C(=O)Nc2nc3ccccc3o2)cc1 (stereo not drawn) [Compound I-30, 4-[1-(Benzooxazol-2-ylcarbamoyl)-2-(4-fluoro-phenyl)-ethyl]-benzoic acid ethyl ester] | 122 to 125 | 0.457
